≈ marks a conversion by molar mass, not a printed value. Where two headings read alike, the source gives them in different places.
What was measured:
[1] = test system: WT E. coli; assay: Minimal inhibitory concentration in wild-type E. coli; assay type: cell-based, Escherichia coli; conditions: read-out: MIC (μM) in WT E. coli
How it was run: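 Broth microdilution: saturated LB overnight culture diluted 1:100 twice, compound serially two-fold diluted across the plate from DMSO stock. Static incubation 16 hours at 37° C, OD600 read; MIC taken as lowest concentration inhibiting growth.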

[2] = test system: S. aureus RN4220; assay: Minimal inhibitory concentration, S. aureus RN4220; assay type: cell-based; conditions: 16 hour minimal inhibitory concentration at 37° C., read-out: MIC (μM) S. aureus RN4220
How it was run: (§1)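 MICs (µM) correspond to the lowest concentration stopping bacterial growth, judged by visible-light absorbance at 600 nm following a 16 h static incubation at 37 °C. Compounds were titrated twofold into doubly 1:100-diluted saturated cultures.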

[3] = test system: S. aureus MW2; assay: Minimal inhibitory concentration, S. aureus MW2; assay type: cell-based; conditions: read-out: MIC (μM) S. aureus MW2 (MRSA)
How it was run: as §1

[4] = test system: E. cloacae 13047; assay: Minimal inhibitory concentration, E. cloacae 13047; assay type: cell-based; conditions: 16 hour minimal inhibitory concentration at 37° C., read-out: MIC (μM) E. cloacae 13047
How it was run: as §1

[5] = test system: A. baumannii 19606; assay: Minimal inhibitory concentration, A. baumannii 19606; assay type: cell-based; conditions: 16 hour minimal inhibitory concentration at 37° C., read-out: MIC (μM) A. baumannii 19606
How it was run: as §1

[6] = test system: K. pneumoniae 700721; assay: Minimal inhibitory concentration, K. pneumoniae 700721; assay type: cell-based; conditions: 16 hour minimal inhibitory concentration at 37° C., read-out: MIC (μM) K. pneumoniae 700721
How it was run: as §1

[7] = test system: E. coli MC4100; assay: Minimal inhibitory concentration, E. coli MC4100; assay type: cell-based; conditions: 16 hour minimal inhibitory concentration at 37° C., read-out: MIC (μM) E. coli MC4100 ara+
How it was run: as §1

[8] = test system: E. coli 25922; assay: Minimal inhibitory concentration, E. coli 25922; assay type: cell-based; conditions: 16 hour minimal inhibitory concentration at 37° C., read-out: MIC (μM) E. coli 25922
How it was run: as §1

[9] = wild-type E. coli, 37° C., 16 hours
[10] = 16 hour minimal inhibitory concentration at 37° C.
[11] = Escherichia coli, wild-type E. coli, 37° C., 16 hours
[12] = Staphylococcus aureus, RN4220, 16 h
[13] = Staphylococcus aureus, MRSA, 16 h, 16 hour minimal inhibitory concentration at 37° C.
[14] = Acinetobacter baumannii, 19606, 16 h

CO[C@@H]1[C@@H](OC(N)=O)[C@@H](O)[C@H](Oc2ccc3c(O)c(NC(=O)c4ccc5ccn(C)c5c4)c(=O)oc3c2C)OC1(C)C [Compound 70]
MIC [1, 9]: >300 µM
MIC [2]: 86 µM (≈ 50 µg/mL)
MIC [3, 10]: 43 µM (≈ 25 µg/mL)
MIC [4]: >100 µM
MIC [5]: >50 µM
MIC [6]: >100 µM
MIC [7]: >200 µM
MIC [8]: >200 µM

CO[C@@H]1[C@@H](OC(N)=O)[C@@H](O)[C@H](Oc2ccc3c(O)c(NC(=O)c4cc(-c5ccc(F)cc5)c(O)cc4O)c(=O)oc3c2C)OC1(C)C [Compound 84]
MIC [1, 9]: 8 µM (≈ 5.24 µg/mL)
MIC [2]: 5 µM (≈ 3.27 µg/mL)
MIC [3, 10]: 5 µM (≈ 3.27 µg/mL)
MIC [4]: 81 µM (≈ 53 µg/mL)
MIC [5]: >50 µM
MIC [6]: 40 µM (≈ 26.2 µg/mL)
MIC [7]: 8 µM (≈ 5.24 µg/mL)
MIC [8]: 10 µM (≈ 6.55 µg/mL)

CO[C@@H]1[C@@H](OC(N)=O)[C@@H](O)[C@H](Oc2ccc3c(O)c(NC(=O)c4cccc(-c5ccccc5C(F)(F)F)c4)c(=O)oc3c2C)OC1(C)C [Compound 60]
MIC [1, 9]: >300 µM
MIC [2]: 9 µM (≈ 6.05 µg/mL)
MIC [3, 10]: 5 µM (≈ 3.36 µg/mL)
MIC [4]: >100 µM
MIC [5]: >50 µM
MIC [6]: >100 µM
MIC [7]: >200 µM
MIC [8]: >200 µM

CO[C@@H]1[C@@H](OC(N)=O)[C@@H](O)[C@H](Oc2ccc3c(O)c(NC(=O)c4cc5ccccc5o4)c(=O)oc3c2C)OC1(C)C [Compound 6]
MIC [1, 11]: > 300 µM
MIC [2, 12]: 88 µM (≈ 50 µg/mL)
MIC [3, 13]: 88 µM (≈ 50 µg/mL)
MIC ([4]; Enterobacter cloacae, 13047): > 100 µM
MIC [5, 14]: > 50 µM
MIC ([6]; Klebsiella pneumoniae, 700721): > 100 µM
MIC ([7]; Escherichia coli, MC4100, 16 h): > 200 µM
MIC ([8]; Escherichia coli, 25922, 16 h): > 200 µM

COc1ccccc1-c1cccc(C(=O)Nc2c(O)c3ccc(O[C@@H]4OC(C)(C)[C@H](OC)[C@@H](OC(N)=O)[C@H]4O)c(C)c3oc2=O)c1 [Compound 50]
MIC [1, 9]: 40 µM (≈ 25.4 µg/mL)
MIC [2]: 19 µM (≈ 12.1 µg/mL)
MIC [3, 10]: 10 µM (≈ 6.35 µg/mL)
MIC [4]: >100 µM
MIC [5]: >50 µM
MIC [6]: >100 µM
MIC [7]: 40 µM (≈ 25.4 µg/mL)
MIC [8]: 39 µM (≈ 24.8 µg/mL)

CO[C@@H]1[C@@H](OC(N)=O)[C@@H](O)[C@H](Oc2ccc3c(O)c(NC(=O)c4cccc(-c5ccccc5N)c4)c(=O)oc3c2C)OC1(C)C [Compound 65]
MIC [1, 9]: 59 µM (≈ 36.6 µg/mL)
MIC [2]: 81 µM (≈ 50.2 µg/mL)
MIC [3, 10]: 40 µM (≈ 24.8 µg/mL)
MIC [4]: >100 µM
MIC [5]: >50 µM
MIC [6]: >100 µM
MIC [7]: 59 µM (≈ 36.6 µg/mL)
MIC [8]: >200 µM

CO[C@@H]1[C@@H](OC(N)=O)[C@@H](O)[C@H](Oc2ccc3c(O)c(NC(=O)c4cccc(-c5ccc(N(C)C)cc5)c4)c(=O)oc3c2C)OC1(C)C [Compound 25]
MIC [1, 11]: > 300 µM
MIC [2, 12]: 0.96 µM (≈ 0.622 µg/mL)
MIC [3, 13]: 0.96 µM (≈ 0.622 µg/mL)
MIC ([4]; Enterobacter cloacae, 13047): > 100 µM
MIC [5, 14]: 19 µM (≈ 12.3 µg/mL)
MIC ([6]; Klebsiella pneumoniae, 700721): > 100 µM
MIC ([7]; Escherichia coli, MC4100, 16 h): > 200 µM
MIC ([8]; Escherichia coli, 25922, 16 h): > 200 µM

CO[C@@H]1[C@@H](OC(N)=O)[C@@H](O)[C@H](Oc2ccc3c(O)c(NC(=O)c4ccc5ccn(C)c5c4)c(=O)oc3c2C)OC1(C)C.Cl [Compound 71]
MIC [1, 9]: >300 µM
MIC [2]: 81 µM
MIC [3, 10]: 41 µM
MIC [4]: >100 µM
MIC [5]: >50 µM
MIC [6]: >100 µM
MIC [7]: >200 µM
MIC [8]: >200 µM

CO[C@@H]1[C@@H](OC(N)=O)[C@@H](O)[C@H](Oc2ccc3c(O)c(NC(=O)CCc4ccccc4)c(=O)oc3c2C)OC1(C)C [Compound 43]
MIC [1, 11]: > 300 µM
MIC [2, 12]: > 100 µM
MIC [3, 13]: > 100 µM
MIC ([4]; Enterobacter cloacae, 13047): > 100 µM
MIC [5, 14]: > 50 µM
MIC ([6]; Klebsiella pneumoniae, 700721): > 100 µM
MIC ([7]; Escherichia coli, MC4100, 16 h): > 200 µM
MIC ([8]; Escherichia coli, 25922, 16 h): > 200 µM

CO[C@@H]1[C@@H](OC(N)=O)[C@@H](O)[C@H](Oc2ccc3c(O)c(NC(=O)c4cccc(S(F)(F)(F)(F)F)c4)c(=O)oc3c2C)OC1(C)C [Compound 26]
MIC [1, 11]: > 300 µM
MIC [2, 12]: > 100 µM
MIC [3, 13]: > 100 µM
MIC ([4]; Enterobacter cloacae, 13047): > 100 µM
MIC [5, 14]: > 50 µM
MIC ([6]; Klebsiella pneumoniae, 700721): > 100 µM
MIC ([7]; Escherichia coli, MC4100, 16 h): > 200 µM
MIC ([8]; Escherichia coli, 25922, 16 h): > 200 µM

CO[C@@H]1[C@@H](OC(N)=O)[C@@H](O)[C@H](Oc2ccc3c(O)c(NC(=O)c4ccc(CCc5ccccc5)cc4)c(=O)oc3c2C)OC1(C)C [Compound 77]
MIC [1, 9]: 40 µM (≈ 25.3 µg/mL)
MIC [2]: 10 µM (≈ 6.33 µg/mL)
MIC [3, 10]: 5 µM (≈ 3.16 µg/mL)
MIC [4]: >100 µM
MIC [5]: >50 µM
MIC [6]: >100 µM
MIC [7]: 40 µM (≈ 25.3 µg/mL)
MIC [8]: 40 µM (≈ 25.3 µg/mL)

CO[C@@H]1[C@@H](OC(N)=O)[C@@H](O)[C@H](Oc2ccc3c(O)c(NC(=O)c4cccc(-c5ccc(Cl)cc5)c4)c(=O)oc3c2C)OC1(C)C [Compound 33]
MIC [1, 11]: 18 µM (≈ 11.5 µg/mL)
MIC [2, 12]: 1.96 µM (≈ 1.25 µg/mL)
MIC [3, 13]: 0.98 µM (≈ 0.626 µg/mL)
MIC ([4]; Enterobacter cloacae, 13047): > 100 µM
MIC [5, 14]: 39 µM (≈ 24.9 µg/mL)
MIC ([6]; Klebsiella pneumoniae, 700721): > 100 µM
MIC ([7]; Escherichia coli, MC4100, 16 h): 18 µM (≈ 11.5 µg/mL)
MIC ([8]; Escherichia coli, 25922, 16 h): 20 µM (≈ 12.8 µg/mL)

CO[C@@H]1[C@@H](OC(N)=O)[C@@H](O)[C@H](Oc2ccc3c(O)c(NC(=O)c4ccc(O)c(C/C=C/C(C)=O)c4)c(=O)oc3c2C)OC1(C)C [Compound 81]
MIC ([1]; Escherichia coli, 16 h): > 300 µM
MIC [2, 12]: 40 µM (≈ 25.1 µg/mL)
MIC ([3]; Staphylococcus aureus, MRSA, 16 h): 40 µM (≈ 25.1 µg/mL)
MIC ([4]; Enterobacter cloacae, 13047): > 100 µM
MIC ([5]; Acinetobacter baumannii, 19606): > 50 µM
MIC ([6]; Klebsiella pneumoniae, 700721): > 100 µM
MIC ([7]; Escherichia coli, MC4100): > 200 µM
MIC ([8]; Escherichia coli, 25922): > 200 µM

CO[C@@H]1[C@@H](OC(N)=O)[C@@H](O)[C@H](Oc2ccc3c(O)c(NC(=O)c4cccc(Cc5ccccc5)c4)c(=O)oc3c2C)OC1(C)C [Compound 69]
MIC [1, 9]: 89 µM (≈ 55.1 µg/mL)
MIC [2]: 5 µM (≈ 3.09 µg/mL)
MIC [3, 10]: 3 µM (≈ 1.86 µg/mL)
MIC [4]: >100 µM
MIC [5]: >50 µM
MIC [6]: >100 µM
MIC [7]: 89 µM (≈ 55.1 µg/mL)
MIC [8]: 81 µM (≈ 50.1 µg/mL)

CO[C@@H]1[C@@H](OC(N)=O)[C@@H](O)[C@H](Oc2ccc3c(O)c(NC(=O)c4cc(N)cc(-c5ccccc5)c4)c(=O)oc3c2C)OC1(C)C [Compound 89]
MIC [1, 9]: 59 µM (≈ 36.6 µg/mL)
MIC [2]: 20 µM (≈ 12.4 µg/mL)
MIC [3, 10]: 10 µM (≈ 6.2 µg/mL)
MIC [4]: >100 µM
MIC [5]: >50 µM
MIC [6]: >100 µM
MIC [7]: 59 µM (≈ 36.6 µg/mL)
MIC [8]: 81 µM (≈ 50.2 µg/mL)

Source: US11713335B2, “Aminocoumarin compounds and methods of their use” (President and Fellows of Harvard College, priority 2018, dated 2023)
